Reference: ChEMBL document CHEMBL4017459, “Synthesis and anti-inflammatory evaluation of N-sulfonyl anthranilic acids via Ir(III)-catalyzed C-H amidation of benzoic acids” (2017)

Assays:
Format in all cases: functional
RAW264.7 [1] = test: Anti-inflammatory activity in mouse RAW264.7 cells assessed as inhibition of LPS-induced Il-1beta secretion measured after 24 hrs by Western blot analysis relatively to control
RAW264.7 [2] = test: Anti-inflammatory activity in mouse RAW264.7 cells assessed as inhibition of LPS-induced COX-2 expression measured after 24 hrs by Western blot analysis relatively to control
RAW264.7 [3] = test: Potency index, ratio of ibuprofen to test compound for anti-inflammatory activity in mouse RAW264.7 cells assessed as inhibition of LPS-induced IL-beta secretion

Cc1cccc(NS(=O)(=O)c2ccccc2)c1C(=O)O
inhibition (INH) (RAW264.7 [1]): 52% | inhibition (INH) (RAW264.7 [2]): 22%

COc1cccc(NS(=O)(=O)c2ccc(C)cc2)c1C(=O)O
inhibition (INH) (RAW264.7 [1]): 66% | Ratio (RAW264.7 [3]): 1.5 - 2.5 | inhibition (INH) (RAW264.7 [2]): 51%

Cc1ccc(S(=O)(=O)Nc2cccc(NS(=O)(=O)c3ccc(C)cc3)c2C(=O)O)cc1
inhibition (INH) (RAW264.7 [1]): -21% | inhibition (INH) (RAW264.7 [2]): 22%

Cc1cccc(NS(=O)(=O)c2ccc(Br)cc2)c1C(=O)O
inhibition (INH) (RAW264.7 [1]): 98% | inhibition (INH) (RAW264.7 [2]): 36%

Cc1ccc(S(=O)(=O)Nc2ccc(C)cc2C(=O)O)cc1
inhibition (INH) (RAW264.7 [1]): 20% | inhibition (INH) (RAW264.7 [2]): 49%

COc1ccc(S(=O)(=O)Nc2cccc(C)c2C(=O)O)cc1
inhibition (INH) (RAW264.7 [1]): 88% | inhibition (INH) (RAW264.7 [2]): 51%

Cc1ccc(S(=O)(=O)Nc2cccc(Cl)c2C(=O)O)cc1
inhibition (INH) (RAW264.7 [1]): 45% | inhibition (INH) (RAW264.7 [2]): -4%

Cc1cccc(NS(=O)(=O)c2ccccc2F)c1C(=O)O
inhibition (INH) (RAW264.7 [1]): 35% | inhibition (INH) (RAW264.7 [2]): 42%

Cc1ccc(S(=O)(=O)Nc2cc(C)cc(C)c2C(=O)O)cc1
inhibition (INH) (RAW264.7 [1]): 45% | inhibition (INH) (RAW264.7 [2]): 52%

Cc1cccc(NS(=O)(=O)c2ccc(C(F)(F)F)cc2)c1C(=O)O
inhibition (INH) (RAW264.7 [1]): 54% | inhibition (INH) (RAW264.7 [2]): 55%

CC(C)Cc1ccc(C(C)C(=O)O)cc1 (configuration not stated) [IBUPROFEN]
inhibition (INH) (RAW264.7 [1]): 35% | inhibition (INH) (RAW264.7 [2]): 54%

Cc1ccc(S(=O)(=O)Nc2cccc([N+](=O)[O-])c2C(=O)O)cc1
inhibition (INH) (RAW264.7 [1]): 81% | Ratio (RAW264.7 [3]): 1.5 - 2.5 | inhibition (INH) (RAW264.7 [2]): -1%

Cc1ccc(S(=O)(=O)Nc2cccc(C)c2C(=O)O)cc1
inhibition (INH) (RAW264.7 [1]): 37% | inhibition (INH) (RAW264.7 [2]): 72%

Cc1cccc(NS(=O)(=O)c2ccc([N+](=O)[O-])cc2)c1C(=O)O
inhibition (INH) (RAW264.7 [1]): 66% | Ratio (RAW264.7 [3]): 1.5 - 2.5 | inhibition (INH) (RAW264.7 [2]): 67%

Cc1ccc(S(=O)(=O)Nc2cccc(F)c2C(=O)O)cc1
inhibition (INH) (RAW264.7 [1]): 82% | Ratio (RAW264.7 [3]): 1.5 - 2.5 | inhibition (INH) (RAW264.7 [2]): 3%

COc1ccc(NS(=O)(=O)c2ccc(C)cc2)c(C(=O)O)c1NS(=O)(=O)c1ccc(C)cc1
inhibition (INH) (RAW264.7 [1]): -21% | inhibition (INH) (RAW264.7 [2]): 34%

Cc1ccc(S(=O)(=O)Nc2cccc(C(F)(F)F)c2C(=O)O)cc1
inhibition (INH) (RAW264.7 [1]): 21% | inhibition (INH) (RAW264.7 [2]): 69%

Cc1ccc(S(=O)(=O)Nc2ccc3ccccc3c2C(=O)O)cc1
inhibition (INH) (RAW264.7 [1]): 9% | inhibition (INH) (RAW264.7 [2]): 34%

Cc1ccc(S(=O)(=O)Nc2cc(C)cc(NS(=O)(=O)c3ccc(C)cc3)c2C(=O)O)cc1
inhibition (INH) (RAW264.7 [1]): 66% | Ratio (RAW264.7 [3]): 1.5 - 2.5 | inhibition (INH) (RAW264.7 [2]): -8%

Cc1cccc(NS(=O)(=O)c2ccc3ccccc3c2)c1C(=O)O
inhibition (INH) (RAW264.7 [1]): 6% | inhibition (INH) (RAW264.7 [2]): 33%

Cc1ccc(S(=O)(=O)Nc2cccc(Br)c2C(=O)O)cc1
inhibition (INH) (RAW264.7 [1]): 42% | inhibition (INH) (RAW264.7 [2]): 18%
